{"source": "patent US11406590B2", "about": "“Essential oil emulsion nostril treatment composition” (King Abdulaziz University, priority 2020, dated 2022)", "tested_on": "Salmonella enterica subsp. Enterica serovar typhimurium (ATCC 29629, TA 1535)", "assay": "Ames test of liposomal preparation", "assay_type": "cell-based", "conditions": "20 and 200 nmol", "description": "To evaluate the safety of the liposomal preparation described in Example 1, the Ames test is performed according to the procedure described by, and incorporated by reference to, Ames et al, Carcinogens are mutagens: their detection and classification. Environ Health Perspect. 1973 December; 6:115-8; Mortelmans and Zeiger, The Ames Salmonella/microsome mutagenicity assay. Mutat Res. 2000 Nov. 20; 455(1-2):29-60.\nBriefly, the test organism Salmonella enterica subsp. Enterica serovar typhimurium (ATCC® 29629-Strain Designations: TA 1535), an auxotrophic mutant, is provided by ATCC, Manassas, USA. This auxotrophic isolate has a mutation in its DNA which prevents it from producing histidine and thus requires histidine for its growth.\nPotentially mutagenic substances are identified by contacting them with this auxotrophic mutant and measuring the frequency of mutations that restore the ability of this auxotroph to grown a medium not containing histidine. […]\nA degree of mutagenicity of the liposome preparation is determined by comparison of the number of colonies appearing on the negative and positive controls and the number of colonies on the solid medium containing different concentrations of the liposome preparation containing the essential oil-in-water emulsion of Example 1."}
{"smiles": "CC[n+]1c(-c2ccccc2)c2cc(N)ccc2c2ccc(N)cc21", "note": "[ethidium bromide]", "values": [{"measurement": "Colony counts on positive control plates", "result": "significant increase"}]}
